Each structure is given as a SMILES string.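 48-hour exposure; five concentrations; linearly interpolated endpoints. Abbreviation: GI50, concentration required for 50% inhibition of growth.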 Active and inactive are the calls of the source. Cut-off read from the data, not from the text of the source: active = GI50 up to about 1.1 µM and inactive = higher.

Some test systems named below: A498; CCRF-CEM; DLD-1; DMS-273; HCT-116; HCT-15; HOP-18; KM-20L2; NCI-H226; NCI-H23; NCI-H460; SNB-78; U-251; LXFL 529; M14; 786-0; SR.
What all share (assay): inhibition of tumour cell growth, NCI panel, 48 h

In the case of `S=P1(N2CCCCC2)Oc2ccc3ccccc3c2-c2c(ccc3ccccc23)O1`, the GI50 with A498 is > 35.2 µM (inactive); in the experiment with CCRF-CEM, > 31.6 µM (inactive); with DLD-1 it was 91.2 µM (inactive); in the experiment with DMS-273 it was > 80.2 µM (inactive); with HCT-116 it was > 82.2 µM (inactive); with HCT-15 it was 63.7 µM. Also, the GI50 was > 71.8 µM (inactive) in the experiment with HOP-18; > 78.9 µM (inactive) in the experiment with KM-20L2; > 54.2 µM (inactive) in the experiment on NCI-H226; > 81.1 µM (inactive) in the experiment with NCI-H23; 33.6 µM (inactive) in the experiment on NCI-H460; 71.4 µM (inactive) in the experiment with SNB-78. In the experiment with U-251, the GI50 is > 65.2 µM (inactive).

Regarding `O=C1CCC2COc3ccc(O)c1c32` (configuration not stated), the GI50 in the experiment on A498 is > 100 µM (inactive); in the experiment with CCRF-CEM it was > 100 µM (inactive); in the experiment with DMS-273, > 100 µM (inactive); in the experiment with HCT-116 it was > 100 µM (inactive); with HCT-15 it was over 100 µM; with HOP-18, > 100 µM (inactive). For the same compound, the GI50 in the experiment with KM-20L2, in the experiment on LXFL 529, in the experiment with M14, in the experiment with NCI-H23, in the experiment on NCI-H460 and in the experiment with SNB-78 was > 100 µM (inactive) in each case. In the experiment on U-251, the GI50 is > 100 µM (inactive).

With `O=C1N(C2CCCCC2)CC12CCCCC2`, the GI50 in the experiment on 786-0 was > 100 µM (inactive); in the experiment with A498, > 100 µM (inactive); with CCRF-CEM, > 100 µM (inactive); in the experiment on DMS-273 it was > 100 µM (inactive); in the experiment on HCT-116 it was > 100 µM (inactive); in the experiment on HCT-15, over 100 µM. In addition, the GI50 in the experiment with HOP-18 is 94.6 µM (inactive); in the experiment with KM-20L2, > 100 µM (inactive); in the experiment with M14, > 100 µM (inactive); in the experiment on NCI-H226, > 100 µM (inactive); in the experiment on NCI-H23, > 100 µM (inactive); in the experiment on NCI-H460 it was > 100 µM (inactive). Besides, the GI50 in the experiment with SNB-78 and in the experiment on U-251 was > 100 µM (inactive) throughout.

For `COc1ccc2c(c1)OCCC1=C2SCC2(C)CCN=C12` (configuration not stated), the GI50 is > 100 µM (inactive) in the experiment with 786-0; > 100 µM (inactive) with CCRF-CEM; > 100 µM (inactive) in the experiment on DLD-1; > 100 µM (inactive) with DMS-273; > 100 µM (inactive) in the experiment on HCT-116; 48.3 µM (inactive) with HOP-18. Besides, the GI50 in the experiment with KM-20L2 was 36.1 µM (inactive); in the experiment on LXFL 529, > 100 µM (inactive); in the experiment on M14 it was > 100 µM (inactive); in the experiment with NCI-H226, 35.6 µM (inactive); with NCI-H23, 61.7 µM (inactive); with NCI-H460 it was > 100 µM (inactive). Moreover, the GI50 with SNB-78 and in the experiment on U-251 was > 100 µM (inactive) in each case.

As to `O=c1c2ccccc2nc(-c2ccc(Br)cc2)n1NC1OC(CO)C(O)C(O)C1O` (configuration not stated), the GI50 is > 100 µM (inactive) in the experiment on 786-0; > 100 µM (inactive) in the experiment with A498; 32.8 µM (inactive) with CCRF-CEM; > 100 µM (inactive) in the experiment with DMS-273; > 100 µM (inactive) in the experiment with HCT-116; over 100 µM in the experiment with HCT-15. In addition, the GI50 in the experiment on HOP-18 is > 100 µM (inactive); in the experiment with KM-20L2 it was > 100 µM (inactive); with LXFL 529, 45.1 µM (inactive); in the experiment with M14 it was > 100 µM (inactive); in the experiment with NCI-H226, > 100 µM (inactive); in the experiment on NCI-H23, > 100 µM (inactive). Besides, the GI50 in the experiment with NCI-H460, in the experiment with SNB-78 and with U-251 was > 100 µM (inactive) in each case.

As to `COc1ccc(/N=C\c2cc(OC)c(OC)c(OC)c2)cc1`, the GI50 in the experiment on 786-0 is > 100 µM (inactive); in the experiment on A498, > 100 µM (inactive); with CCRF-CEM, 57.5 µM (inactive); in the experiment on DLD-1, > 100 µM (inactive); in the experiment on HCT-116 it was > 100 µM (inactive); in the experiment on HCT-15 it was 29.2 µM. The GI50 in the experiment on HOP-18 was > 100 µM (inactive); in the experiment on KM-20L2 it was > 100 µM (inactive); with LXFL 529, 51.6 µM (inactive); in the experiment with NCI-H23 it was > 100 µM (inactive); in the experiment with NCI-H460, 85.9 µM (inactive); with SNB-78 it was > 100 µM (inactive). In the experiment on U-251, the GI50 is > 100 µM (inactive).

For the compound `C(=C/c1nc2ccccc2o1)/c1ccc2c(c1)OCO2`, the GI50 is 21.8 µM (inactive) in the experiment with A498; > 67.9 µM (inactive) with CCRF-CEM; 5.74 µM (inactive) in the experiment with DLD-1; 4.56 µM (inactive) with DMS-273; 12.3 µM (inactive) in the experiment with HCT-116; 8.18 µM in the experiment on HCT-15. Moreover, the GI50 was 5.21 µM (inactive) with HOP-18; 6.61 µM (inactive) in the experiment on KM-20L2; 18 µM (inactive) in the experiment with NCI-H226; 22.9 µM (inactive) with NCI-H23; 21.2 µM (inactive) with NCI-H460; 25.7 µM (inactive) with SNB-78. Besides, the GI50 in the experiment with U-251 was 17.5 µM (inactive).

In the case of `COc1ccc(OCC(C)(C)O)cc1`, the GI50 is > 100 µM (inactive) with A498; > 100 µM (inactive) in the experiment with CCRF-CEM; > 100 µM (inactive) with DLD-1; > 100 µM (inactive) in the experiment on DMS-273; > 100 µM (inactive) in the experiment on HCT-116; over 100 µM in the experiment on HCT-15. In addition, the GI50 in the experiment on HOP-18, in the experiment on KM-20L2, in the experiment on NCI-H226, with NCI-H23, in the experiment on NCI-H460 and in the experiment on SNB-78 was > 100 µM (inactive) in each case. For the same compound, the GI50 in the experiment with U-251 is > 100 µM (inactive).

Turning to `C(=C\c1csnn1)/c1cccnc1`, the GI50 in the experiment on 786-0 is > 100 µM (inactive); in the experiment on A498, > 100 µM (inactive); in the experiment with DLD-1, > 100 µM (inactive); in the experiment with HCT-116, > 100 µM (inactive); with HCT-15, over 100 µM; in the experiment with HOP-18, > 100 µM (inactive). Further, the GI50 was > 100 µM (inactive) in the experiment with KM-20L2; 75.7 µM (inactive) in the experiment on LXFL 529; > 100 µM (inactive) in the experiment on M14; > 100 µM (inactive) with NCI-H226; > 100 µM (inactive) in the experiment with NCI-H23; > 100 µM (inactive) in the experiment on NCI-H460. Moreover, the GI50 in the experiment on SNB-78 and in the experiment on U-251 was > 100 µM (inactive) each time.

Take `COc1cccc(/C=C2\C(=O)N(C(=O)Cc3ccccc3)N=C2C)c1`: the GI50 in the experiment with 786-0 was > 100 µM (inactive); in the experiment with CCRF-CEM it was > 100 µM (inactive); in the experiment on DLD-1, > 100 µM (inactive); with DMS-273, > 100 µM (inactive); in the experiment with HCT-116 it was > 100 µM (inactive); with HCT-15 it was over 100 µM. Moreover, the GI50 was 12.4 µM (inactive) in the experiment on HOP-18; > 100 µM (inactive) with M14; > 100 µM (inactive) in the experiment on NCI-H226; > 100 µM (inactive) in the experiment on NCI-H23; > 10 µM (inactive) in the experiment with NCI-H460; > 100 µM (inactive) in the experiment with SNB-78. Further, the GI50 in the experiment on SR and in the experiment on U-251 was > 100 µM (inactive) in each case.

With `N#CC1(c2nc3ccccc3o2)C(=O)C(=O)N(C2C3CC4CC(C3)CC2C4)C(=O)C1=O` (configuration not stated), the GI50 in the experiment on 786-0 is > 100 µM (inactive); in the experiment on A498, > 100 µM (inactive); with CCRF-CEM it was 64.9 µM (inactive); in the experiment on DMS-273 it was > 100 µM (inactive); with HCT-116, > 100 µM (inactive); in the experiment with HCT-15, over 100 µM. For the same compound, the GI50 in the experiment on HOP-18, with KM-20L2, with LXFL 529, in the experiment with M14, in the experiment on NCI-H226 and with NCI-H23 was > 100 µM (inactive) throughout. Also, the GI50 in the experiment with NCI-H460, in the experiment on SNB-78, in the experiment with SR and in the experiment with U-251 was > 100 µM (inactive) in each case.

Consider `CCOc1ccc(NC(=O)C(=O)CC(=O)c2c(C)[n+]([O-])c3ccccc3[n+]2[O-])cc1`, for which the GI50 in the experiment with 786-0 is > 100 µM (inactive); with A498, > 100 µM (inactive); in the experiment with CCRF-CEM it was > 100 µM (inactive); in the experiment on DMS-273, > 100 µM (inactive); in the experiment on HCT-116, > 100 µM (inactive); in the experiment with HCT-15 it was over 100 µM. Moreover, the GI50 with HOP-18 is 24.9 µM (inactive); in the experiment with KM-20L2, > 100 µM (inactive); in the experiment with LXFL 529 it was > 100 µM (inactive); in the experiment with M14, > 100 µM (inactive); with NCI-H226 it was > 100 µM (inactive); in the experiment on NCI-H23 it was > 100 µM (inactive). Moreover, the GI50 in the experiment with NCI-H460 is > 100 µM (inactive); in the experiment on SNB-78 it was > 100 µM (inactive); in the experiment on SR, 64.9 µM (inactive); with U-251 it was > 100 µM (inactive).

On to `COC(=O)c1ccc(NC(=O)c2cc(OC)c(OC)c(OC)c2)cc1`, for which the GI50 with 786-0 was 0.859 µM (active); with A498, 3.44 µM (inactive); with CCRF-CEM, 3.73 µM (inactive); with DLD-1, 4.69 µM (inactive); in the experiment on DMS-273 it was 0.327 µM (active); in the experiment with HCT-116 it was 0.948 µM (active). The GI50 is 1.08 µM in the experiment with HCT-15; 49.4 µM (inactive) in the experiment with HOP-18; 1.44 µM (inactive) in the experiment with KM-20L2; 1.64 µM (inactive) in the experiment with LXFL 529; 4.28 µM (inactive) in the experiment with M14; 2.54 µM (inactive) in the experiment with NCI-H226. The GI50 was 0.0279 µM (active) in the experiment on NCI-H23, 2.23 µM (inactive) in the experiment on NCI-H460, 1.36 µM (inactive) with SR and 0.236 µM (active) with U-251.

As to `Cc1ccc(N2Cc3c(ccc4ccccc34)OP2(=O)Oc2ccc(Cl)c(C)c2)cc1` (configuration not stated), the GI50 in the experiment on A498 is 81.5 µM (inactive); in the experiment with CCRF-CEM, > 93.3 µM (inactive); with DLD-1 it was > 41.8 µM (inactive); with DMS-273, > 77.8 µM (inactive); with HCT-116, 26.1 µM (inactive); in the experiment on HCT-15, 13.8 µM. The GI50 in the experiment on HOP-18 is > 61.1 µM (inactive); with KM-20L2 it was > 100 µM (inactive); in the experiment with NCI-H226, > 100 µM (inactive); in the experiment with NCI-H23, > 100 µM (inactive); with NCI-H460, 67.5 µM (inactive); with SNB-78 it was > 100 µM (inactive). Further, in the experiment on U-251, the GI50 was > 100 µM (inactive).

These data come from ChEMBL document CHEMBL1201862, “PubChem BioAssay data set” (2004).
